According to patent US6734188B1, “Composition for treatment of constipation and irritable bowel syndrome” (priority 1999, dated 2004):

Tests used:
[1] = test system: healthy, non-smoking volunteers; assay: Gut transit time study with radio opaque markers, oral naloxone with or without oral codeine (Example 1); format: in vivo, human; settings: for Gut transit time, Maximum / Gut transit time, Mean / Gut transit time, Median / Gut transit time, Minimum: codeine 30 mg bd
Experimental: The study consisted of four 10-day study periods, with at least two weeks between each, which were in a randomised order and the capsules being administered daily in a double blind manner. […] The capsules were administered twice a day (“bd”).
The study protocol was as follows: On day 0, subjects were given capsule B and on days 1 to 9, were given capsules A and B. On days 3 to 6, the subjects took transit markers; packaged in distinctly coloured capsules, each containing 20 different shaped radio opaque marker pellets (Dunn Clinical Nutrition). From day 7, the subjects' next two bowel motions were collected. A normal diet was adhered to throughout the study period and recorded on days 3 to 6.

[2] = in vivo; cited from earlier work
[3] = test system: patient with Irritable Bowel Syndrome; settings: administered intermittently, similar dosage form to Example 3
[4] = after parenteral administration; cited from earlier work
male volunteers = assay: Gut transit time study, fixed doses of naloxone with or without codeine (Example 2); format: in vivo, human; settings: naloxone 5, 10 and 20 mg bd, Gelucire 53/10:42/12 95:5, Eudragit LS coated; with 30 mg bd codeine in second week
Experimental: In a further study, the procedure of Example 1 was substantially followed using Gelucire™ 53/10 & Gelucire™ 42/12 95:5 as the polyglycolised glyceride matrix.
The gut transit time was measured at the end of the first week. During the second week, each volunteer was also given 30 mg bd codeine and gut transit times measured again at the end of the second week.

[5] = test system: patients with advanced cancer; settings: patients with advanced cancer treated with an opioid analgesic; cited from earlier work
[6] = 8 patients whose transit time was increased by codeine (n = 8), naloxone 10 mg bd
[7] = all patients (n = 12), oral capsules twice a day, naloxone 10 mg bd
[8] = all patients (n = 12), oral capsules twice a day, naloxone 10 mg bd (Gelucire 50/13:42/12 82.5:17.5, enteric coated)

Structure (SMILES) | Gut transit time, Maximum [1, 6] [h] | Gut transit time, Mean [1, 6] [h] | Gut transit time, Median [1, 6] [h] | Gut transit time, Minimum [1, 6] [h] | Gut transit time, Maximum [1, 7] [h] | Gut transit time, Mean [1, 7] [h] | Gut transit time, Median [1, 7] [h] | Gut transit time, Minimum [1, 8] [h] | Crossing of the blood-brain barrier [2] | Clinical outcome in irritable bowel syndrome [3] | Plasma half-life [4] | Effect on gut transit time (in words) (male volunteers) | Effect on gut transit time (in words) ([1]; Example 1, naloxone 10 mg bd alone or with codeine 30 mg bd) | Laxative effect [5]
COc1ccc2c3c1O[C@H]1[C@@H](O)C=C[C@H]4[C@@H](C2)N(C)CC[C@@]341 [Codeine, codeine phosphate] | 84.00 | 66.17 | 67.85 | 50.42 | 84.00 | 57.27 | 56.76 | 25.22 |  |  |  |  |  | 
C[N@+]1(CC2CC2)CC[C@]23c4c5ccc(O)c4O[C@H]2C(=O)CC[C@@]3(O)[C@H]1C5 [methylnaltrexone] |  |  |  |  |  |  |  |  | do not cross the blood-brain barrier to a significant extent |  |  |  |  | 
C=CCN1CC[C@]23c4c5ccc(O)c4O[C@H]2C(=O)CC[C@@]3(O)[C@H]1C5 [Naloxone, 17-allyl-6-deoxy-7,8-dihydro-14-hydroxy-6-oxonormorphine] | 63.91 | 41.41 | 37.95 | 27.40 | 63.91 | 42.13 | 38.85 | 27.40 |  | substantial clinical benefit | about 1 h | accelerate gut transit time | reduced gut transit time | produce a laxative effect
